pKd: −log10 of the molar value. Where two headings read alike, the source gives them in different places. Where no end group is shown, it is not given here.
How the values were obtained:
Assay in all cases: Direct-binding FRET assay
Set-up in all cases: made in house
[1] = target: ATF6B (Homo sapiens, UniProt Q99941); conditions: Kd
In short: (§1)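 Direct-binding FRET used a fresh acceptor dilution series in 1 mM TCEP-HCl. Simulated binding for varying Kd was compared against experiment, accounting for competing donor and acceptor homodimers.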

[2] = target: FOS (Homo sapiens, UniProt P01100)
In short: as §1

[3] = target: JUN (Homo sapiens, UniProt P05412); conditions: Kd
In short: as §1

[4] = target: MAFG (Homo sapiens, UniProt O15525)
In short: as §1

[5] = target: ATF6 (Homo sapiens, UniProt P18850)
Description: (§2) The direct binding assay was performed manually in 384-well plates and is similar to a previously described assay. Wells were filled with 20 μL of 1 mM TCEP-HCl. A 4 μM stock of acceptor protein was made fresh in 1 mM TCEP-HCl, and 20 μL was titrated in 2-fold dilutions over the wells. […] The direct-binding FRET data were fit as previously described. Briefly, the Kd of the designed peptide homodimer was experimentally determined and used with previously determined target homodimer Kd values to determine the heterodimer Kd. The homodimer Kd values used for the human bZIPs were from; experiments done by […] et al. used the same protein constructs for the human bZIP proteins, the same buffer conditions, and the same assay. The fitting used a system of ordinary differential equations to describe the concentrations of homo and heterodimers formed by the donor (D) and acceptor (A) as a function of the heterodimer Kd. MATLAB was used to simulate the binding experiment for different Kd values, and the value that gave the best agreement between simulation and experiment was assigned. A minimum 15% change in the donor fluorescence upon titrating the acceptor peptide from 0 to 1000 nM was required for a fit to be attempted. If this minimum was not met, the interaction was classified as “NS” for no signal change. […] These interactions were marked “AS” to indicate anomalous signal. We attributed this to interactions between the peptides, the dyes and the walls of the assay plates at low concentrations. These curves could not be fit, given their unusual shapes at low concentrations of acceptor. For such curves, we removed the first five points and re-fit the data. […] One example of this is increasing concentrations of acceptor causing an increase in donor fluorescence.

[6] = target: BACH1 (Homo sapiens, UniProt O14867)
Description: as §2

[7] = target: BACH2 (Homo sapiens, UniProt Q9BYV9); conditions: Kd
Description: as §2

[8] = target: MAF (Homo sapiens, UniProt O75444)
Description: as §2

[9] = target: MAFB (Homo sapiens, UniProt Q9Y5Q3); conditions: Kd, mean or single
Description: as §2

[10] = target: NFE2L1 (Homo sapiens, UniProt Q14494); conditions: Kd, mean or single
Description: as §2

[11] = 4°C, C-terminal fluorescein design as donor, TAMRA target titrated
[12] = 4°C, C-terminal rhodamine design, repeat 1
[13] = 4°C, N-terminal rhodamine design, mean or single
[14] = 23°C, C-terminal fluorescein design as donor, TAMRA target titrated
[15] = 23°C, C-terminal rhodamine design, repeat 1
[16] = 23°C, N-terminal rhodamine design, mean or single
[17] = 37°C, C-terminal fluorescein design as donor, TAMRA target titrated
[18] = 37°C, N-terminal rhodamine design, mean or single
[19] = 4°C, C-terminal rhodamine design, mean or single
[20] = 23°C, C-terminal rhodamine design, mean or single
[21] = 4°C, C-terminal rhodamine design
[22] = 4°C, N-terminal rhodamine design
[23] = 23°C, C-terminal rhodamine design
[24] = 23°C, N-terminal rhodamine design
[25] = 37°C, C-terminal rhodamine design
[26] = 37°C, N-terminal rhodamine design

BACH2, sequence (Q9BYV9 646-709 limits assumed): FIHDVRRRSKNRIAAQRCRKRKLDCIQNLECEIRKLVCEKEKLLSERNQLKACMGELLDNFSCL
ATF6, sequence (P18850 306-369 limits assumed): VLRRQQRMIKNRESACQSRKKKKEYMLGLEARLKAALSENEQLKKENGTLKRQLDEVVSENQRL
NFE2L1, sequence (Q14494 654-717 limits assumed): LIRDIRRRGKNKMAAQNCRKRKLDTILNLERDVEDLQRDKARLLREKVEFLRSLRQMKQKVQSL
MAF, sequence (O75444 288-351 limits assumed): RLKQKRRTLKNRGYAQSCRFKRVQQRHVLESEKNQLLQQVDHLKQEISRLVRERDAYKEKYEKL
MAFG, sequence (O15525 51-114 limits assumed): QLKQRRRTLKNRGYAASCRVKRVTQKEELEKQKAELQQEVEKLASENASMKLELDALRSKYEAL
BACH1, sequence (O14867 557-620 limits assumed): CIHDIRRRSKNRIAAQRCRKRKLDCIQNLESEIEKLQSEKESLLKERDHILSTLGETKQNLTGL
ATF6B, sequence (Q99941 325-388 limits assumed): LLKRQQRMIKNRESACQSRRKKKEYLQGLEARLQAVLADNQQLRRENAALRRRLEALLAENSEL
FOS, sequence (P01100 137-200 limits assumed): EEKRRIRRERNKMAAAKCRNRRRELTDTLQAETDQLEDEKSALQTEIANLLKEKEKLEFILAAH

Sequence: SIAATLEKEEANLEKMNKKLAAEIESLLKEKDKLESVLNYHE [JUN-d1]
- pKd [1, 11]: 6.00 to 6.70
- pKd [1, 12]: < 6.00
- pKd [1, 13]: < 6.00
- pKd [1, 14]: < 6.00
- pKd [1, 15]: < 6.00
- pKd [1, 16]: < 6.00
- pKd [1, 17]: < 6.00
- pKd ([1]; 37°C, C-terminal rhodamine design, repeat 1): < 6.00
- pKd [1, 18]: < 6.00
- pKd [2]: < 6.00
- pKd [2, 11]: < 6.00
- pKd [2, 13]: < 6.00
- pKd [2, 14]: < 6.00
- pKd [2, 15]: < 6.00
- pKd [2, 16]: < 6.00
- pKd [2, 17]: < 6.00
- pKd [2, 18]: < 6.00
- pKd [3, 11]: 8.68
- pKd [3, 19]: 9.00
- pKd [3, 17]: 7.79
- pKd [4]: < 6.00
- pKd [4, 12]: < 6.00
- pKd [4, 13]: < 6.00
- pKd [4, 15]: < 6.00
- pKd [4, 16]: < 6.00
- pKd [4, 18]: < 6.00
- pKd [5]: < 6.00
- pKd [5, 11]: < 6.00
- pKd [5, 19]: < 6.00
- pKd [5, 13]: < 6.00
- pKd [5, 14]: < 6.00
- pKd [5, 20]: < 6.00
- pKd [5, 16]: < 6.00
- pKd [5, 17]: < 6.00
- pKd [5, 18]: < 6.00
- pKd [6]: < 6.00
- pKd [6, 11]: < 6.00
- pKd [6, 19]: < 6.00
- pKd [6, 13]: < 6.00
- pKd [6, 14]: < 6.00
- pKd [6, 20]: < 6.00
- pKd [6, 16]: < 6.00
- pKd [6, 17]: < 6.00
- pKd [6, 18]: < 6.00
- pKd [7, 11]: < 6.00
- pKd [7, 19]: < 5.30
- pKd [7, 13]: < 6.00
- pKd [7, 14]: < 6.00
- pKd [7, 20]: < 6.00
- pKd [7, 16]: < 6.00
- pKd [7, 17]: < 6.00
- pKd ([7]; 37°C, C-terminal rhodamine design, mean or single): < 6.00
- pKd [7, 18]: < 6.00
- pKd [8]: < 6.00
- pKd [8, 19]: < 6.00
- pKd [8, 13]: < 6.00
- pKd [8, 20]: < 6.00
- pKd [8, 16]: < 6.00
- pKd [8, 18]: < 6.00
- pKd [9, 21]: 6.49
- pKd [9, 22]: < 6.00
- pKd [9, 23]: < 6.00
- pKd [9, 24]: < 6.00
- pKd [9, 25]: < 6.00
- pKd [9, 26]: < 6.00
- pKd [10, 21]: < 5.30
- pKd [10, 22]: < 6.00
- pKd [10, 23]: < 5.30
- pKd [10, 24]: < 6.00
- pKd [10, 25]: < 5.30
- pKd [10, 26]: < 6.00

— PMC4335062, “Data-Driven Prediction and Design of bZIP Coiled-Coil Interactions” (PLoS Computational Biology, 2015)
